Results: article PMC6471559, “Design and Synthesis of a New Soluble Natural β-Carboline Derivative for Preclinical Study by Intravenous Injection” (International Journal of Molecular Sciences, 2019)
Entries after “also recorded” stand apart in the source; their conditions may differ. Like-named read-outs stand apart in the source and are kept apart here.

Key:
[1] = Kinetic solubility by HPLC, Multiscreen Solubility Filter plate; type: physicochemical
Excerpt: From those data, we chose an isopentyl substituent on position 7, which is suitable to decrease neurotoxicity of the targeted compound. We selected a propyl group on position 9 as a short alkyl substituent, seems to be suitable to maintain good antiproliferative properties. […] This high activity can result in low administered doses, thus counter-balancing the low LD50 associated with this N^2 substitution. […] It has been shown that pyridine scaffold in lead compounds can result in higher solubility because of the presence of the heteroatom. Finally, the pyridyl group offers good potential for salification and/or cocrystallization which can also improve pharmacological properties.
The kinetic solubility of compounds 1a and 1b was determined by HPLC method, using a Multiscreen Solubility Filter 96-well plate (Merck®) using a test adapted from. First, the calibration curve was performed from five solutions (3.13 µM 12.5 µM, 50 µM, 200 µM and 500 µM, with a final DMSO concentration of 5%). The kinetic solubility was measured in triplicate at physiological pH in phosphate buffer (0.05 M Na2HPO4; 0.02 M NaCl adjusted at physiological pH using solution NaH2PO4 0.05 M; NaCl 0.02 M) and in acidic condition (0.2 M HCl, 0.03 M NaCl adjusted at pH = 1.1 using HCl 37%). […]

[2] = Thermodynamic solubility by UV absorbance at 330 nm after 72 h stirring at 37 °C; type: physicochemical; settings: thermodynamic from solid
Description: (§1) Compound 2 solubility and stability measurements were performed at 37 °C at pH 1.1 (0.02 M NaCl, pH 1.1 obtained by HCl addition) to mimic gastric conditions, at pH 7.4 (0.050 M Na2HPO4/NaH2PO4 and 0.02 M NaCl, pH 7.4) and simulated injection vehicle (0.9% NaCl and 0.1% Polysorbate 80). Stability measurements were performed from 0 h to 72 h after complete solubilization. […] At pH 1.1 as well as in the simulated injection vehicle, a higher solubility is observed in comparison with the solubility at physiological pH. Solubility is 1.06 ± 0.08 mg/mL at physiological pH, 1.62 ± 0.13 mg/mL at acidic pH, as well as 1.87 ± 0.07 mg/mL in a simulated vehicle injection (Table 1).
Solubility of compound 2 was evaluated at 37 °C, at pH 1.1 (0.02 M NaCl, pH 1.1 obtained by HCl addition), at physiological pH (buffer 0.050 M Na2HPO4/NaH2PO4 and 0.02 M NaCl, pH 7.4) as well as in a simulated injection vehicle (0.9% NaCl and 0.1% Polysorbate 80 pH 7.4). To this aim, an excess of compound 2 was placed in the […] media in a 24 well plate and stirred (1200 rpm) 72 h at 37 °C after hermetic sealing. After 72 h of stirring, the solutions were filtered (0.2 µm) and diluted 100 times. The solubility was determined by UV absorbance at 330 nm using a calibration curve (five points in a range of concentration between 0.005 and 0.1 mg/mL). All measurements were made in triplicate and adequate dissolutions were performed to stay in Beer-Lambert conditions.

[3] = Stability in three media by UV spectra from 0 h to 72 h at 37 °C; type: physicochemical; settings: pH 1.1, pH 7.4 and simulated injection vehicle (0.9% NaCl, 0.1% Polysorbate 80)
Description: as §1
We have evaluated the stability of compound 2 in three different conditions (at pH 1.1, at pH 7.4 and in a simulated injection vehicle) for three days and at 37 °C because it is compatible with physiological temperature and because a higher temperature can result in a better solubilization. We observe that the compound remains stable for at least three days in the three different solutions tested, which allowed determination of its thermodynamic solubility. […]

[4] = test system: A549 human lung carcinoma cells; experiment: MTT antiproliferative assay, 72 h; type: cell-based
Description: (§2) Antiproliferative activity of compound 2 was evaluated using a colorimetric MTT assay for 72 h. […] Compound 2 activity was studied on different cancer cell lines: two glioma cell lines (T98G, Hs683), one breast cancer cell line (MDA-MB-231), one lung cancer cell line (A549) and one pancreatic cell line (PANC-1). A mean submicromolar antiproliferative activity was observed (Table 2). […] Cytotoxicity of compound 2 against normal cells (epithelial breast cells MCF-10a) vs. cancer cells (MDA-MB-231) was also determined. […] MDA-MB-231 human breast cancer cells, T98G human brain cancer cells and PANC-1 human epithelioid carcinoma were maintained in culture in 75-cm^2 polystyrene flasks (Corning®, […], Luxembourg) with respectively 15 mL of Dulbecco's modified Eagle's medium (#341966-029 DMEM 1X; ThermoFisher, Gibco®, Geel, Belgium) containing 4.5g/L of glucose, 10% of fetal calf serum (#10270 ThermoFisher, Gibco®, Geel, Belgium) and supplemented with penicillin-streptomycin 10,000 U/mL (#15140 ThermoFisher, Gibco®, Geel, Belgium) incubated under an atmosphere containing 5% CO2. HS683 human glioma and A549 human lung carcinoma were maintained in culture in 75-cm^2 polystyrene flasks (Corning®) with respectively 15 mL of Roswell Park Memorial Institute medium (Gibco® RPMI 1640, Thermofisher, Geel, Belgium) containing 10% of fetal calf serum (#10270 ThermoFisher, Gibco®, Geel, Belgium) and supplemented with penicillin-streptomycin 10,000 U/mL (#15140 ThermoFisher, Gibco®, Geel, Belgium), glutamine (200 mM) and HEPES (25 mM) incubated under an atmosphere containing 5% CO2. MCF-10-a human non-tumorigenic breast epithelial cells were maintained in 75-cm^2 polystyrene flasks (Corning®, […], Luxembourg) with 15 mL of Gibco®, Geel, Belgium) F-12 Nutrient Mixture (Ham) containing 5% of horse serum (Invitrogen®) supplemented with 10 μg/mL of human Insulin (Sigma®, Schnelldorf, Germany), 0.5 μ/mL of Hydrocortisone (Sigma®, Schnelldorf, Germany) and 20 ng/mL of Epidermal Growth Factor (Peprotech®, London, UK) incubated under an atmosphere containing 5% CO2. The cell lines were obtained from the American Type Culture Collection (ATCC, Manassas, VA). Antiproliferative activity and overall cytotoxicity of compound 2 on cancer and normal cells lines (breast cancer cell line MDA-MB231 and non-tumorigenic breast epithelial cells (MCF-10a) were determined in vitro using colorimetric MTT (Sigma-Aldrich (Schnelldorf, Germany)) solution (0.5 mg/mL in PBS) assay according to a protocol adapted from. Cells were seeded in 96-well culture plate (1200 cells/well 1 day before incubation and were treated for 72 h in culture medium at 37 °C with different concentrations of compound 2 ranging from 1 nM to 10 μM, with semilog concentration increasing of the compound. The yellow MTT product was converted to a purple formazan derivative through mitochondrial enzymatic reduction. At the end of the incubation of 4 h, the plate was centrifugated at 1200 rpm for 5 min and the MTT solution was decanted. Then, blue formazan was solubilized with DMSO and absorbance at 570 nm, which is directly proportional to the number of metabolic active cells, is determined. Experiments were carried out in sextuplicates.

Hs683 human glioma cells = experiment: MTT antiproliferative assay, 72 h; type: cell-based
Description: as §2

[5] = test system: MDA-MB-231 human breast cancer cells; experiment: MTT antiproliferative assay, 72 h; type: cell-based
Description: as §2

[6] = test system: PANC-1 human epithelioid carcinoma cells; experiment: MTT antiproliferative assay, 72 h; type: cell-based
Description: as §2

[7] = test system: T98G human brain cancer cells; experiment: MTT antiproliferative assay, 72 h; type: cell-based
Description: as §2

[8] = test system: A549, MDA-MB-231, PANC-1, T98G and Hs683 cell lines; experiment: MTT antiproliferative assay, 72 h, summary over five cancer cell lines; type: cell-based; settings: Homo sapiens, A549, MDA-MB-231, PANC-1, T98G and Hs683, MTT, read-out: IC50 range over five cancer cell lines
Description: (§3) Antiproliferative activity of compound 2 was evaluated using a colorimetric MTT assay for 72 h. […] Compound 2 activity was studied on different cancer cell lines: two glioma cell lines (T98G, Hs683), one breast cancer cell line (MDA-MB-231), one lung cancer cell line (A549) and one pancreatic cell line (PANC-1). A mean submicromolar antiproliferative activity was observed (Table 2). […] Cytotoxicity of compound 2 against normal cells (epithelial breast cells MCF-10a) vs. cancer cells (MDA-MB-231) was also determined. […] Antiproliferative activity and overall cytotoxicity of compound 2 on cancer and normal cells lines (breast cancer cell line MDA-MB231 and non-tumorigenic breast epithelial cells (MCF-10a) were determined in vitro using colorimetric MTT (Sigma-Aldrich (Schnelldorf, Germany)) solution (0.5 mg/mL in PBS) assay according to a protocol adapted from. Cells were seeded in 96-well culture plate (1200 cells/well 1 day before incubation and were treated for 72 h in culture medium at 37 °C with different concentrations of compound 2 ranging from 1 nM to 10 μM, with semilog concentration increasing of the compound. […] Then, blue formazan was solubilized with DMSO and absorbance at 570 nm, which is directly proportional to the number of metabolic active cells, is determined. […]

[9] = test system: MCF-10a human non-tumorigenic breast epithelial cells; experiment: MTT cytotoxicity on normal cells vs. cancer cells; type: cell-based; settings: in the IC50 concentration range
Description: as §3

Cc1nccc2c1[nH]c1cc(OCCC(C)C)ccc12 [1a, 1-methyl-7-(3-methylbutoxy)-9H-pyrido[3,4-b]indole]
Kinetic solubility at low pH ([1]; pH 1.1): good solubility at low pH

CCCn1c2cc(OCCC(C)C)ccc2c2ccnc(C)c21 [1b, 1-methyl-7-(3-methylbutoxy)-9-propyl-9H-pyrido[3,4-b]indole]
Kinetic solubility at low pH ([1]; acidic condition pH 1.1, 5% DMSO, preliminary data, values only in Figure 2B): good solubility at low pH

CCCn1c2cc(OCCC(C)C)ccc2c2cc[n+](Cc3ccccn3)c(C)c21.[Br-] [compound 2, 1-methyl-7-(3-methylbutoxy)-9-propyl-2-[(pyridin-2-yl)methyl]-9H-pyrido[3,4-b]indol-2-ium bromide]
solubility thermodynamic at 72 h ([2]; 0.02 M NaCl solution acidified with HCl, pH 1.1, simulated gastric fluid, pH 1.1 (0.02 M NaCl, HCl), read-out: Mean thermodynamic solubility at 37 °C): 1620 ± 130 µg/mL | solubility thermodynamic at 72 h ([2]; 0.02 M NaCl solution acidified with HCl, pH 1.1, simulated gastric fluid, pH 1.1 (0.02 M NaCl, HCl), read-out: Thermodynamic solubility at 37 °C replicate 1): 1460 ± 10 µg/mL | solubility thermodynamic at 72 h ([2]; 0.02 M NaCl solution acidified with HCl, pH 1.1, simulated gastric fluid, pH 1.1 (0.02 M NaCl, HCl), read-out: Thermodynamic solubility at 37 °C replicate 2): 1630 ± 20 µg/mL | solubility thermodynamic at 72 h ([2]; 0.02 M NaCl solution acidified with HCl, pH 1.1, simulated gastric fluid, pH 1.1 (0.02 M NaCl, HCl), read-out: Thermodynamic solubility at 37 °C replicate 3): 1770 ± 10 µg/mL | solubility thermodynamic at 72 h ([2]; phosphate buffer, pH 7.4, aqueous buffer, pH 7.4 phosphate buffer, read-out: Mean thermodynamic solubility at 37 °C): 1060 ± 80 µg/mL | solubility thermodynamic at 72 h ([2]; phosphate buffer, pH 7.4, aqueous buffer, pH 7.4 phosphate buffer, read-out: Thermodynamic solubility at 37 °C replicate 1): 980 ± 10 µg/mL | solubility thermodynamic at 72 h ([2]; phosphate buffer, pH 7.4, aqueous buffer, pH 7.4 phosphate buffer, read-out: Thermodynamic solubility at 37 °C replicate 2): 990 ± 10 µg/mL | solubility thermodynamic at 72 h ([2]; phosphate buffer, pH 7.4, aqueous buffer, pH 7.4 phosphate buffer, read-out: Thermodynamic solubility at 37 °C replicate 3): 1150 ± 10 µg/mL | solubility thermodynamic at 72 h ([2]; simulated injection vehicle, pH 7.4, aqueous with cosolvent or surfactant or cyclodextrin, injection vehicle (0.9% NaCl and 0.1% Polysorbate 80), read-out: Mean thermodynamic solubility at 37 °C): 1870 ± 70 µg/mL | solubility thermodynamic at 72 h ([2]; simulated injection vehicle, pH 7.4, aqueous with cosolvent or surfactant or cyclodextrin, injection vehicle (0.9% NaCl and 0.1% Polysorbate 80), read-out: Thermodynamic solubility at 37 °C replicate 1): 1950 ± 10 µg/mL | solubility thermodynamic at 72 h ([2]; simulated injection vehicle, pH 7.4, aqueous with cosolvent or surfactant or cyclodextrin, injection vehicle (0.9% NaCl and 0.1% Polysorbate 80), read-out: Thermodynamic solubility at 37 °C replicate 2): 1900 ± 40 µg/mL | solubility thermodynamic at 72 h ([2]; simulated injection vehicle, pH 7.4, aqueous with cosolvent or surfactant or cyclodextrin, injection vehicle (0.9% NaCl and 0.1% Polysorbate 80), read-out: Thermodynamic solubility at 37 °C replicate 3): 1770 ± 10 µg/mL | Time for which the compound is stable (no modification of UV spectra) [3]: at least 72 h | Cytostatic at IC50 ([4]; A549, metabolic activity at IC50 compared with T = 0 h): cytostatic behavior; also recorded: cytostatic effect | IC50 ([4]; Homo sapiens, A549, MTT, 72 h): 261 nM | IC50 (Hs683 human glioma cells): 305 nM | IC50 (Hs683 human glioma cells; Homo sapiens, Hs 683, 72 h): < 500 nM | IC50 ([5]; Homo sapiens, MDA-MB-231, MTT, 72 h): 449 nM | Cytostatic at IC50 ([5]; MDA-MB-231, metabolic activity at IC50 compared with T = 0 h): cytostatic behavior; also recorded: cytostatic effect | IC50 ([6]; Homo sapiens, PANC-1, MTT, 72 h): 350 nM | Cytostatic at IC50 ([6]; PANC-1, metabolic activity at IC50 compared with T = 0 h): No | IC50 ([7]; Homo sapiens, MTT, 72 h): 2190 nM | Cytostatic at IC50 ([7]; metabolic activity at IC50 compared with T = 0 h): No | IC50 [8]: 200 to 2000 nM | Activity on normal cells (MCF-10a) vs. cancer cells (MDA-MB-231) [9]: more active on a cancer cell line than on normal cells | Activity on normal cells (MCF-10a) vs. cancer cells (MDA-MB-231) ([9]; listed as 1-methyl-7-(3-methylbutoxy)-9-propyl-2-[(pyridin-2-yl)methyl]-9H-pyrido[3,4-b]in): more active on cancer cells (MDA-MB-231) than on normal cells (MCF-10a)
